Data as given in PubChem BioAssay AID2060484 (Molecular Pharmacology Branch, DTP, NCI, 2025).

Tested on: SUM149PT spheroids with HUVEC/MSC, viability
Experiment: Anticancer human tumor SUM149PT cell line growth inhibition [GQUAD];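 also: spheroids exposed to drugs for seven days before readout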;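 as to viability, T/C: percent viability relative to DMSO vehicle control taken as 100%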
Settings: for IC50: curve of first compound; for viability, T/C: stronger effect = lower value
From the text: DNA G-quadruplex Stabilizer Agents in Combinations in Complex Spheroids
A high-throughput screen of multi-cell type tumor spheroids was designed to identify active combinations of DNA G-quadruplex stabilizer agents and targeted small molecules. Complex spheroids include a stromal component modeled by human endothelial cells (HUVEC) and fibroblasts modeled by human mesenchymal stem cells (MSCs). The concentration ranges selected for each drug and investigational agent were based upon clinically achievable concentrations if the clinical Cmax of the agent was known.
Compounds. The drugs and investigational agents: pidnarulex (CX-5461; NSC782164), APTO-253 (NSC789042), BRACO-19 (NSC847499), peposertib (NSC802822), ceralasertib (NSC780249), elimusertib (NSC800525), camonsertib (NSC841442), AZD-1390 (NSC803789), olaparib (NSC753686), talazoparib (NSC767125), ART-558 (NSC835418), sotorasib (NSC818433), MRTX-1133 (NSC836407), SN-38 (NSC673596), topotecan (NSC609699), etoposide (NSC141540), doxorubicin (NSC123127), gemcitabine (NSC613327), 5-fluorouracil (NSC19893), paclitaxel (NSC125973), vemurafenib (NSC761431), panobinostat (NSC761190), R-306465 (JNJ-16241199; NSC773264), adavosertib (NSC754352), TP-3654 (NSC805149), carboplatin (NSC241240), KSQ-4279 (NSC840948), and staurosporine (NSC755774) were obtained from the National Cancer Institute (NCI) Developmental Therapeutics Program Chemical Repository (34). The FDA-approved anticancer drug set is available from the NCI Developmental Therapeutics Program. […] The stock solutions were prepared in dimethyl sulfoxide (DMSO, Sigma-Aldrich, St. Louis, MO, cat. D2650) at 800-fold the tested concentration and stored at -70 degrees C prior to their use. All drugs and investigational agents were tested over a range starting from a high concentration at or near the clinical Cmax and decreasing in half-log increments. If the clinical Cmax for an agent had not been determined, the highest concentration tested was 10 microM.
2.3 Cell Culture. All cells were maintained in an incubator at 37 degrees C and 5% CO2 with 95% humidity. The PDC lines were cultured according to standard operating procedures established by the NCI PDMR. All PDCs were thawed and cultured in Matrigel-coated flasks prepared with a working solution of 1X Ham's F-12 nutrient mix, without supplementation (Invitrogen, cat. 11765054), 100 U/mL penicillin-streptomycin (Invitrogen, cat. 15140122), and 2.5% Matrigel (Corning Inc., cat. 354248) for the first three passages. The 857933-349-R-J2-PDC line was cultured in 6C/Colon 1B media, which includes advanced DMEM/F-12 (Thermo Fisher Scientific, cat. 12634028), 10 mM HEPES (Thermo Fisher Scientific, cat. 15630080), 1X GlutaMAX supplement (Thermo Fisher Scientific, cat. 35050061), 0.1 mg/mL primocin (InvivoGen, cat. ant-pm-2), 10% defined fetal bovine serum, heat inactivated (HyClone Laboratories Inc., cat. SH30070.03HI), 50% L-WRN conditioned media (ATCC, cat. CRL-3276), 1.25 mM N-Acetyl-L-cysteine (Sigma-Aldrich, cat. A9165), 10 mM nicotinamide (Sigma-Aldrich, cat. N0636), 1X B-27 supplement (Thermo Fisher Scientific, cat. 17504044), 1X N-2 supplement (Thermo Fisher Scientific, cat. 17502048), 10 microM Y-27632 dihydrochloride (Tocris Bioscience, cat. 1254), and 50 ng/mL human EGF recombinant protein (Thermo Fisher Scientific, cat. PHG0311). The 485176-168-R4-J1-PDC line was cultured in Panc media, which includes all 6C/Colon 1B media components plus 100 ng/mL human FGF-10 (Thermo Fisher Scientific, cat. 100-26), 500 nM SB-431542 (Selleckchem, cat. S1067), and gastrin (Tocris, cat. 3006).
[…]

## CC[C@@]1(O)C(=O)OCc2c1cc1n(c2=O)Cc2cc3c(CN(C)C)c(O)ccc3nc2-1 + Cc1cnc(CNC(=O)c2c(=O)c3ccc(N4CCCN(C)CC4)nc3n3c2sc2ccccc23)cn1
Second compound 0.0316 µM
  IC50: 26.4 nM
Second compound 0.1 µM
  IC50: 18.7 nM
Second compound 0.316 µM
  IC50: 14.7 nM
Second compound 1 µM
  IC50: < 0.999 nM
Second compound 3.16 µM
  IC50: < 0.999 nM
Second compound 10 µM
  IC50: < 0.999 nM
Second compound 0.0316 µM, first compound 0.000999 µM
  viability, T/C: 90.4%
Second compound 0.0316 µM, first compound 0.00316 µM
  viability, T/C: 71.8%
Second compound 0.0316 µM, first compound 0.00999 µM
  viability, T/C: 77.7%
Second compound 0.0316 µM, first compound 0.0316 µM
  viability, T/C: 44.9%
Second compound 0.0316 µM, first compound 0.0999 µM
  viability, T/C: 36.1%
Second compound 0.0316 µM, first compound 0.316 µM
  viability, T/C: 40.4%
Second compound 0.1 µM, first compound 0.000999 µM
  viability, T/C: 60.9%
Second compound 0.1 µM, first compound 0.00316 µM
  viability, T/C: 66.8%
Second compound 0.1 µM, first compound 0.00999 µM
  viability, T/C: 56.8%
Second compound 0.1 µM, first compound 0.0316 µM
  viability, T/C: 43.5%
Second compound 0.1 µM, first compound 0.0999 µM
  viability, T/C: 44.7%
Second compound 0.1 µM, first compound 0.316 µM
  viability, T/C: 44.6%
Second compound 0.316 µM, first compound 0.000999 µM
  viability, T/C: 48.5%
Second compound 0.316 µM, first compound 0.00316 µM
  viability, T/C: 58.3%
Second compound 0.316 µM, first compound 0.00999 µM
  viability, T/C: 55.1%
Second compound 0.316 µM, first compound 0.0316 µM
  viability, T/C: 38.9%
Second compound 0.316 µM, first compound 0.0999 µM
  viability, T/C: 42%
Second compound 0.316 µM, first compound 0.316 µM
  viability, T/C: 45.1%
Second compound 1 µM, first compound 0.000999 µM
  viability, T/C: 38.5%
Second compound 1 µM, first compound 0.00316 µM
  viability, T/C: 44.6%
Second compound 1 µM, first compound 0.00999 µM
  viability, T/C: 45.5%
Second compound 1 µM, first compound 0.0316 µM
  viability, T/C: 41.5%
Second compound 1 µM, first compound 0.0999 µM
  viability, T/C: 37.4%
Second compound 1 µM, first compound 0.316 µM
  viability, T/C: 39.3%
Second compound 3.16 µM, first compound 0.000999 µM
  viability, T/C: 38.5%
Second compound 3.16 µM, first compound 0.00316 µM
  viability, T/C: 38%
Second compound 3.16 µM, first compound 0.00999 µM
  viability, T/C: 40.4%
Second compound 3.16 µM, first compound 0.0316 µM
  viability, T/C: 37.1%
Second compound 3.16 µM, first compound 0.0999 µM
  viability, T/C: 36.3%
Second compound 3.16 µM, first compound 0.316 µM
  viability, T/C: 35.1%
Second compound 10 µM, first compound 0.000999 µM
  viability, T/C: 0.4%
Second compound 10 µM, first compound 0.00316 µM
  viability, T/C: 11.1%
Second compound 10 µM, first compound 0.00999 µM
  viability, T/C: 9.79%
Second compound 10 µM, first compound 0.0316 µM
  viability, T/C: 11.4%
Second compound 10 µM, first compound 0.0999 µM
  viability, T/C: 2.25%
Second compound 10 µM, first compound 0.316 µM
  viability, T/C: 2.23%
